{"source": "patent US11229664B2", "about": "“Treatment of myelosuppression” (priority 2012, dated 2022)", "key": {"platelets [1]": {"system": "platelets", "assay": "Clinical trial, metastatic pancreatic cancer: platelet count / thrombocytopenia grade", "assay_type": "in vivo, human", "parameters": "Platelet count at start of cycle, Cycle 4 / Platelet count: unit: ×10^3/μl blood", "source_text": "Male and non-pregnant, non-lactating, female patients, aged 18 to 75, with histologically confirmed metastatic adenocarcinoma of the pancreas were enrolled in the trial. […] Treatment consisted of a series of 28-day cycles, wherein the last day of one cycle (e.g., day 28, cycle 1) was immediately followed by the first day of the next cycle (e.g., day 1, cycle 2). […] Nab-paclitaxel and gemcitabine therapy was given as described in the prescribing information for Abraxane® and Gemzar®. See also, Von Hoff et al., 2011, J. […] As a substantially non-anticoagulant heparinoid, ODSH can be administered at a dose that is greater than the fully anticoagulant dose of unfractionated heparin, without concern for anticoagulant effect, as shown in the Results below. An initial run-in period was conducted in which ten patients were treated with the gemcitabine, nab-paclitaxel, and ODSH regimen described above. After all ten patients had completed at least one 28-day cycle, the data were reviewed and an open-label randomized study initiated, with two arms (ODSH arm and Control arm). In the ODSH arm, the dosing regimen was the same as in the run-in period (gemcitabine, nab-paclitaxel, and ODSH). In the Control arm, patients were given the same gemcitabine and nab-paclitaxel regimen as in the run-in period, but without ODSH. […] Platelet counts, total white blood cell counts, and absolute neutrophil counts were performed. Grading of thrombocytopenia and/or neutropenia was performed according to the following standards: [table]"}, "platelets [2]": {"system": "platelets", "assay": "Clinical trials of ODSH adjunctive to induction and consolidation therapy in AML (platelet counts, need for transfusion)", "assay_type": "in vivo, human", "experimental": "A clinical trial is conducted to confirm the therapeutic advantage of ODSH administered adjunctively to induction and consolidation therapy and subsequent allogeneic or autologous bone marrow transplantation in the treatment of acute myelogenous leukemia (AML). Subjects included in the trial are subjects diagnosed with AML who are undergoing induction and consolidation therapy. Subjects are randomly assigned to either a control group (receiving only induction and consolidation therapy) or a treatment group (receiving adjunctive administration of ODSH). ODSH is administered as a continuous infusion (0.375 mg/kg/hr). Subjects in each arm of the trial are evaluated for platelet counts and the need for platelet transfusion. Further metrics evaluated include measurement of circulating levels of PF4 and rate of granulocyte recovery.\nA second clinical trial is conducted to confirm the advantage of ODSH administered adjunctively to induction and consolidation chemotherapy in the treatment of AML. The trial is an open-label pilot study often patients newly diagnosed with AML and not previously treated for AML. Patient treatment regimens are as follows. […] Subjects are evaluated for the degree and duration of thrombocytopenia, based on platelet counts and need for transfusion."}, "[3]": {"settings": "day 15, first cycle, ODSH adjunct to gemcitabine/nab-paclitaxel"}}, "note": "Values joined by “and” are separate entries in the source; they are usually repeats but may differ in a detail not shown here. Equal entries are not always repeated.", "data": [{"substance": "substantially 2-O, 3-O desulfated heparin [ODSH]", "values": [{"measurement": "Platelet count at start of cycle, Cycle 4", "setting": "platelets [1]; day 1 of cycle 4, ODSH adjunctive to gemcitabine and nab-paclitaxel, individual patients", "value": "402 and 292 and 478 and 667 and 184 and 406 and 626 and 382 and 387 and 586"}, {"measurement": "Platelet count at start of cycle, Cycle 5", "setting": "platelets [1]; day 1 of cycle 5, ODSH adjunctive to gemcitabine and nab-paclitaxel, individual patients", "value": "351 and 389 and 275 and 512 and 427 and 288 and 499"}, {"measurement": "Platelet count at start of cycle, Cycle 6", "setting": "platelets [1]; day 1 of cycle 6, ODSH adjunctive to gemcitabine and nab-paclitaxel, individual patients", "value": "489 and 371 and 503 and 275 and 288"}, {"measurement": "Platelet count at start of cycle, Cycle 7", "setting": "platelets [1]; day 1 of cycle 7, ODSH adjunctive to gemcitabine and nab-paclitaxel, individual patients", "value": 454}, {"measurement": "Patients with no more than mild thrombocytopenia after two doses of treatment", "setting": "platelets [1]; [3]", "value": 90, "unit": "%"}, {"measurement": "Patients with no thrombocytopenia after two doses of treatment", "setting": "platelets [1]; [3]", "value": 40, "unit": "%"}, {"measurement": "Patients with no thrombocytopenia after five doses of treatment", "setting": "platelets [1]; day 15 of cycle 2, ODSH adjunct to gemcitabine/nab-paclitaxel", "value": "7 out of 10"}, {"measurement": "Patients thrombocytopenic at the beginning of cycles 2 and 3", "setting": "platelets [1]; mild (Grade 1), after three or six doses of gemcitabine and nab-paclitaxel with ODSH", "value": "one"}, {"measurement": "Platelet count", "setting": "platelets [1]; open-label randomized trial, per arm, Cycle 1 Day 1", "value": 248}, {"measurement": "Platelet count", "setting": "platelets [1]; open-label randomized trial, per arm, Cycle 1 Day 15", "value": 143}, {"measurement": "Platelet count", "setting": "platelets [1]; open-label randomized trial, per arm, Cycle 2 Day 1", "value": 336}, {"measurement": "Platelet count", "setting": "platelets [1]; open-label randomized trial, per arm, Cycle 2 Day 15", "value": 135}, {"measurement": "Platelet count", "setting": "platelets [1]; open-label randomized trial, per arm, Cycle 3 Day 1", "value": 393}, {"measurement": "Platelet count", "setting": "platelets [1]; open-label randomized trial, per arm, Cycle 3 Day 15", "value": 171}, {"measurement": "Platelet count", "setting": "platelets [1]; open-label randomized trial, per arm, Cycle 4 Day 1", "value": 404}, {"measurement": "Platelet count", "setting": "platelets [1]; open-label randomized trial, per arm, Cycle 4 Day 15", "value": 156}, {"measurement": "Platelet count", "setting": "platelets [1]; open-label randomized trial, per arm, Cycle 5 Day 1", "value": 389}, {"measurement": "Platelet count", "setting": "platelets [1]; open-label randomized trial, per arm, Cycle 5 Day 15", "value": 121}, {"measurement": "Platelet count", "setting": "platelets [1]; open-label randomized trial, per arm, Cycle 6 Day 1", "value": 371}, {"measurement": "Platelet count", "setting": "platelets [1]; open-label randomized trial, per arm, Cycle 6 Day 15", "value": 132}, {"measurement": "Platelet Count, Screen", "setting": "platelets [1]; prior to entry into the clinical trial protocol, individual patients", "value": "321 ×10^3/μl blood and 187 ×10^3/μl blood and 269 ×10^3/μl blood and 267 ×10^3/μl blood and 166 ×10^3/μl blood and 271 ×10^3/μl blood and 204 ×10^3/μl blood and 505 ×10^3/μl blood"}, {"measurement": "Platelet count", "setting": "platelets [1]; randomized stage, individual patients, Cycle 1 Day 15", "value": "231 and 216 and 121 and 103 and 199 and 172 and 162 and 232"}, {"measurement": "Platelet count", "setting": "platelets [1]; randomized stage, individual patients, Cycle 2 Day 15", "value": "110 and 156 and 95 and 74 and 92 and 165"}, {"measurement": "Platelet count", "setting": "platelets [1]; randomized stage, individual patients, Cycle 3 Day 15", "value": "124 and 74 and 76 and 96"}, {"measurement": "Platelet count", "setting": "platelets [1]; randomized stage, individual patients, Cycle 4 Day 15", "value": "31 and 138"}, {"measurement": "Platelet counts, ODSH arm vs Control arm", "setting": "platelets [1]; randomized stage, gemcitabine + nab-paclitaxel with or without ODSH", "value": "statistically significant difference"}, {"measurement": "Median and mean platelet counts at day 15 of the first cycle, ODSH arm vs patients not receiving ODSH", "setting": "platelets [1]; randomized trial, 5 patients in each arm, p=0.013 unpaired t-test", "value": "significantly higher"}, {"measurement": "Platelet recovery by day 1 of a subsequent cycle, ODSH arm vs control arm", "setting": "platelets [1]; randomized trial, p=0.0004 after 6 cycles, unpaired t-test", "value": "enhanced"}, {"measurement": "Thrombocytopenia in AML patients on induction and consolidation chemotherapy (second trial)", "setting": "platelets [2]; ODSH 4 mg/kg bolus then 0.25 mg/kg/hr, cytarabine + idarubicin", "value": "attenuates thrombocytopenia"}, {"measurement": "Thrombocytopenia in AML patients on induction and consolidation therapy (first trial)", "setting": "platelets [2]; ODSH continuous infusion 0.375 mg/kg/hr, adjunctive", "value": "attenuates thrombocytopenia"}]}]}
